Assay results as given in ChEMBL document CHEMBL3232860, “Evaluation of structural effects on 5-HT(2A) receptor antagonism by aporphines: identification of a new aporphine with 5-HT(2A) antagonist activity” (Bioorg Med Chem Lett, 2014).

What was measured:
[1] = target: 5-hydroxytryptamine receptor 2A (Homo sapiens) (UniProt P28223); experiment: Antagonist activity at human 5-HT2A receptor assessed as inhibition of 5-HT-induced mobilization of internal calcium at 10 uM by FLIPR assay; assay type: functional
[2] = target: T1, Alpha-1A adrenergic receptor (Homo sapiens) (UniProt P35348); experiment: Antagonist activity at alpha1A adrenergic receptor (unknown origin) assessed as inhibition of mobilization of internal calcium at 10 uM by FLIPR assay; assay type: functional
T1 sequence (whole entry): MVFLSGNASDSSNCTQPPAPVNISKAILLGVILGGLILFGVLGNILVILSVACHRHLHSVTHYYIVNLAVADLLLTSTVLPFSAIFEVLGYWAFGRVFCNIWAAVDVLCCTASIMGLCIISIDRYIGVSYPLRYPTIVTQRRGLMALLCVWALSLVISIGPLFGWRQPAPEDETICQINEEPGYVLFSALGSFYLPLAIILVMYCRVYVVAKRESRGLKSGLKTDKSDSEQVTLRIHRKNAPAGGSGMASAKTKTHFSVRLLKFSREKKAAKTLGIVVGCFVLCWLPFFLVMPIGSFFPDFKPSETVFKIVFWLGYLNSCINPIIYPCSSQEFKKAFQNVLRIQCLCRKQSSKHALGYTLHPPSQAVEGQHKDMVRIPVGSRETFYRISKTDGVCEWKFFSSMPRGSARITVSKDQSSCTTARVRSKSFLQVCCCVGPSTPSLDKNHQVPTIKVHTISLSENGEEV

Homo sapiens = species: Homo sapiens; experiment: Selectivity ratio of Ke for human 5-HT2A receptor to Ke for alpha1A adrenergic receptor (unknown origin)

Sequence of 5-hydroxytryptamine receptor 2A (Homo sapiens) (P28223 whole entry): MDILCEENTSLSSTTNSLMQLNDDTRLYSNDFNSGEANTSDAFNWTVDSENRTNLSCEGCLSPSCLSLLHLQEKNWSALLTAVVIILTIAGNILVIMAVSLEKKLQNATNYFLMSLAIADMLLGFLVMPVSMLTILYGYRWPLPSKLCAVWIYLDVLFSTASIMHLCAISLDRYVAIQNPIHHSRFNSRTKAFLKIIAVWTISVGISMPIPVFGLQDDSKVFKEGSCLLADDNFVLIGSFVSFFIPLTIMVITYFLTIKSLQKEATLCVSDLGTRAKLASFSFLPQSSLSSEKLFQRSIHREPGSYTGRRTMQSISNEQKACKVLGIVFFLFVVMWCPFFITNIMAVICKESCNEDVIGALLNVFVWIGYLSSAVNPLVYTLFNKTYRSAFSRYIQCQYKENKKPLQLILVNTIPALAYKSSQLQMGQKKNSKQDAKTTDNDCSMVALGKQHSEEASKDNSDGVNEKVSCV

Row | Compound | Ke [1] [nM] | Ke [2] [nM] | Ratio Ke (Homo sapiens)
1 | COc1cc2c3c(c1OC)-c1cc4c(cc1CC3OCC2)OCO4 (stereo unspecified) | > 3000 | > 3000 | –
2 | C=CCc1cc2c3c(c1O)-c1cc4c(cc1CC3N(C)CC2)OCO4 (stereo unspecified) | > 3000 | > 3000 | –
3 | C=CCOc1c(CC=C)cc2c3c1-c1cc4c(cc1CC3N(C)CC2)OCO4 (stereo unspecified) | 1370 | > 3000 | < 0.45
4 | C=CCOc1c(OC)cc2c3c1-c1cc4c(cc1CC3OCC2)OCO4 (stereo unspecified) | > 3000 | > 3000 | –
5 | C=CCc1cc2c3c(c1OCC1CC1)-c1cc4c(cc1CC3N(C)CC2)OCO4 (stereo unspecified) | 963 | > 3000 | < 0.32
6 | COc1cc2c3c(c1OC)-c1cc4c(cc1C[C@H]3N(C)CC2)OCO4 | 946 | 70 | 13.5
7 | COc1cc2c3c(c1OC)-c1cc4c(cc1C[C@@H]3N(C)CC2)OCO4 | 657 | 196 | 3.4
8 | C=CCc1cc2c3c(c1OC)-c1cc4c(cc1CC3N(C)CC2)OCO4 (stereo unspecified) | 485 | 566 | 0.85
9 | CN1CCc2ccc(O)c3c2C1Cc1cc2c(cc1-3)OCO2 (stereo unspecified) | > 3000 | 2950 | –
10 | C=CCOc1ccc2c3c1-c1cc4c(cc1CC3N(C)CC2)OCO4 (stereo unspecified) | 47 | 744 | 0.06
